Molecules are shown by their SMILES. Activity calls are given as the source filed them.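 Rule for the calls: active = half-maximal concentration for the rise in caspase light signal at or below ten times the top tested dose; inconclusive = flat fit between 30% and 70% activity, or unreliable curve fit; inactive = the rest.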

The values that follow come from PubChem BioAssay AID2765 (Broad Institute, 2010).

This assay concerns MEF A1-2A-BIM cells, caspase 3/7 luminescence, 3 h. In words: caspase activation in A1-2A-BIM MEF cells, dose response, A1 inhibitor project, cell-based, luminescence, retest (AID 2765).
One may read the EC50 as the concentration that produces a half-maximal response. Turning to `CC(C)(C)c1ccc2c(c1)OC(C(=O)N/N=C\c1ccc[nH]1)CO2` (stereo not drawn), the EC50 is > 35 µM (inactive).

As for `CCCCC1CCC(C(=O)N(CC(C)C)c2c(N)n(Cc3ccccc3)c(=O)[nH]c2=O)CC1` (stereo not drawn), the EC50 is 5.65 µM. The value for `Cc1n[nH]c(C)c1S(=O)(=O)N1CCC(C(=O)O)CC1` was > 35 µM (inactive). To `COc1cc(NC(=O)c2ccccc2)c(OC)cc1NC(=O)Cc1ccc(Br)cc1` belongs > 35 µM (inactive). Turning to `O=C(/C=C/c1ccc(F)cc1)NC(=S)Nc1ccccc1C(=O)NC1CCCCC1`, the EC50 was > 35 µM (inactive). As for `CCOc1ccccc1C(=O)N[C@H](C(=O)OCc1cc([N+](=O)[O-])cc2c1OCOC2)C(C)C`, the EC50 is > 35 µM (inactive).

Take `O=C(Cn1[nH]c(=O)c2ccccc2c1=O)OCC(=O)N1CCc2ccccc2C1`: the EC50 is > 35 µM (inactive).

In the case of `C[C@H](NC(=O)OC(C)(C)C)C(=O)NCC1CCC(C(=O)N[C@@H](Cc2ccccc2)C(=O)O)CC1` (stereo partly drawn), the EC50 was > 35 µM (inactive). `O=C1C2C3C=CC(CO)(O3)C2C(=O)N1c1ccc(-c2ccccc2)cc1` (stereo not drawn): the EC50 is > 35 µM (inactive). With `COC(=O)c1c(NC(=O)C2CC(C)=C(C)CC2C(=O)O)sc2c1CCCCC2` (stereo not drawn), the EC50 is > 35 µM (inactive). As for `CC(=O)Nc1ccc(NC(=O)C(=O)NCC(c2ccco2)N2CCc3ccccc32)cc1` (stereo not drawn), the EC50 is 32.5 µM.

For `O=C(O)COc1ccccc1/C=C1\C(=O)Nc2ccc(Br)cc21`, the EC50 is > 35 µM (inactive). To `CCc1cccc(N(CC(=O)NCc2ccc(F)cc2)C(=O)c2csnn2)c1` belongs > 35 µM (inactive); to `C[N+](C)(C)CCNC(=O)c1cc[n+](Cc2ccccc2)c(/C=N/O)c1`, > 35 µM (inactive). The value for `Cc1[nH]n(-c2cccc(Cl)c2)c(=O)c1C=NC12CN3CN(CN(C3)C1)C2` was > 35 µM (inactive); that for `Cc1ccc(C(=O)N/C(=C\c2sccc2C)C(=O)NCCCN2CCOCC2)cc1` was > 35 µM (inactive). To `COc1ccc(NC(=O)CN(C)C(=O)/C=C/c2ccc(S(=O)(=O)N3CCCCCC3)cc2)cc1` belongs > 35 µM (inactive); to `COc1ccc(OC)c(CNc2ccc([N+](=O)[O-])cc2C)c1`, > 35 µM (inactive). As for `Clc1ccc(C(Cn2ccnc2)OCc2c(Cl)cccc2Cl)c(Cl)c1` (stereo not drawn), the EC50 is > 35 µM (inactive). For the molecule `CC(=O)c1cccc(CN2CCN(CCc3ccccc3)C(CCO)C2)c1` (stereo not drawn), the EC50 is > 35 µM (inactive). The value for `O=C1NC(=O)C(c2cn(-c3ccccc3)nc2-c2ccc(F)cc2)N1` (stereo not drawn) was > 35 µM (inactive).

Regarding `CC(C)C[C@H](NC(=O)N1CCn2c1nc1ccccc12)C(=O)NCc1ccccc1`, the EC50 is > 35 µM (inactive). With `COC(=O)C[C@H]1c2ccccc2S(=O)(=O)N1c1cccc(OC)c1`, the EC50 was > 35 µM (inactive). For `CC(=O)OCCn1c2nc(=O)[nH]c(=O)c-2nc2cc(C)c(C)cc21`, the EC50 was > 35 µM (inactive). To `CCOC(=O)/C(=C\c1ccc([N+](=O)[O-])cc1)C(=O)c1cc(C(C)=O)c(Nc2ccccc2)s1` belongs 1.9 µM; to `C=CCn1c(SCC(=O)NC2CC2)nnc1-c1ccccn1`, > 35 µM (inactive); to `Cc1cc(Oc2ccc(=O)[nH]n2)nc(Cl)n1`, > 35 µM (inactive). The value for `COc1ccc(-c2oc(=O)c3cc(OC)c(OC)cc3c2/C=C/c2cccc([N+](=O)[O-])c2)cc1` was > 35 µM (inactive); that for `Cc1ccccc1[C@]1(C)ON(c2ccccc2C(F)(F)F)C1=O` was > 35 µM (inactive).

As to `O=C(c1cc(-c2ccccn2)nc2ccc(Cl)cc12)N1CCN(CCc2ccccc2)CC1`, the EC50 is > 35 µM (inactive). The value for `Cc1ccc(NC(=O)c2ccc(N/N=C/c3cccc(O)c3)c([N+](=O)[O-])c2)cc1` was 21.5 µM.

Turning to `O=C(/C=C/c1ccc(Cl)c(Cl)c1)NC1=NCCS1`, the EC50 is > 35 µM (inactive).

Regarding `COc1ccc(C(=O)NCc2cccnc2)cc1Br`, the EC50 is > 35 µM (inactive).
